Like-named read-outs stand apart in the source and are kept apart here.
Tests used:
[1] = cited from earlier work; for phase transformation under mechanical stress (grinding, pressure): conventional grinding or pressure, literature
[2] = compared with form 1; cited from earlier work
[3] = cited from earlier work; for temperature of conversion to the other polymorph: on heating
[4] = tribochemical treatment (high-energy grinding) with phase detection by X-ray powder diffractometry; type: physicochemical; settings: for phase transformation achieved by the process (summary statement): Fritsch Pulverisette 7, hardened steel, as a solid
Protocol: The detection of the particular modification/form was conducted with X-ray powder diffractometry: X-ray diffractometer: SToe STADI P transmission diffractometer, CuKα1: 1.54060 Å, linear position-sensitive detector, measurement range 5-40°2Theta, step width 0.01°2Theta, measurement time 960 sec/step.
High-energy mill: Fritsch Pulverisette 7;
Grinding cup: hardened steel, volume 10 ml; […]
Temperature control: no temperature control […]
Amount of substance: 1.0 g

Structure (SMILES): CC(=O)Nc1nnc(S(N)(=O)=O)s1 [polymorph 1 of acetazolamide, 5-Acetamido-1,3,4-thiadiazole-2-sulfonamide]
- phase transformation under mechanical stress (grinding, pressure) ([1]; listed as polymorph 1): not converted back to polymorph 2
- storage period without conversion back to polymorph 2 ([1]; storage): over 5 years

Structure (SMILES): Cc1ccnc(NS(=O)(=O)c2ccc(N)cc2)n1 [sulfamerazine form 2, 2-Sulfanilamido-4-methylpyrimidine]
- hygroscopicity [2]: less hygroscopic
- release of the active ingredient [2]: releases the sulfamerazine better
- temperature of conversion to the other polymorph [3]: about 170 °C

Structure (SMILES): Cc1ccnc(NS(=O)(=O)c2ccc(N)cc2)n1 [sulfamerazine form 1, 2-Sulfanilamido-4-methylpyrimidine]
- phase transformation under mechanical stress (grinding, pressure) [1]: neither polymorphic form undergoes a transformation
- phase found after tribochemical treatment ([4]; Example 1.1: 1.0 g, normal atmosphere, 800 rpm, 1 hour, no temperature control): Virtually full conversion of form 1 to the desired form 2
- phase found after tribochemical treatment ([4]; Example 1.2: 1.0 g, normal atmosphere, 800 rpm, 5 minutes): still attributable to form 1
- phase found after tribochemical treatment ([4]; Example 1.3: 1.0 g, normal atmosphere, 800 rpm, 15 minutes): still attributable to form 1
- phase found after tribochemical treatment ([4]; Example 1.4: 1.0 g, normal atmosphere, 800 rpm, 30 min): all of which are attributable to form 2
- phase found after tribochemical treatment ([4]; Example 1.5: 10.0 g, 7 balls, 40 ml grinding cup, 800 rpm, 15 minutes): those of form 1
- phase found after tribochemical treatment ([4]; Example 1.6: 10.0 g, 7 balls, 40 ml grinding cup, 800 rpm, 30 min): all of which are attributable to form 2
- phase found after tribochemical treatment ([4]; Example 1.7: 15.0 g, 2 balls, 40 ml grinding cup, 800 rpm, 120 and 180 min): formation of form 2
- phase transformation achieved by the process (summary statement) [4]: fully to form 2

Structure (SMILES): CCCNC(=O)NS(=O)(=O)c1ccc(Cl)cc1 [Chlorpropamide form A, Chlorpropamide]
- phase transformation under mechanical stress (grinding, pressure) ([1]; listed as form A): detectable phase transformations under none of the mechanical stresses listed
- phase found after tribochemical treatment ([4]; Experiment 3.1: 1.0 g, 800 rpm, 1 hour): partial transformation to form C
- phase transformation achieved by the process (summary statement) ([4]; listed as form A): partly to form C

Structure (SMILES): CCCNC(=O)NS(=O)(=O)c1ccc(Cl)cc1 [Chlorpropamide form C, Chlorpropamide]
- phase transformation under mechanical stress (grinding, pressure) ([1]; listed as form C): partial phase transformation to form A
- thermodynamic stability of the phase ([3]; at room temperature (acetazolamide)): metastable
- phase found after tribochemical treatment ([4]; Experiment 3.2: 1.0 g, 800 rpm, 15 minutes): clearly perceptible incipient transformation to form A
- phase found after tribochemical treatment ([4]; Experiment 3.3: 1.0 g, 800 rpm, 60 minutes): transformed fully to form A
- phase transformation achieved by the process (summary statement) ([4]; listed as form C): fully to form A

Structure (SMILES): CC(=O)Nc1nnc(S(N)(=O)=O)s1 [polymorph 2 of acetazolamide, 5-Acetamido-1,3,4-thiadiazole-2-sulfonamide]
- phase transformation under mechanical stress (grinding, pressure) ([1]; listed as polymorph 2): Nor has the transformation of polymorph 2 to polymorph 1 under mechanical stress been observed
- temperature of conversion to the other polymorph [3]: 120-148 °C
- phase found after tribochemical treatment ([4]; Experiment 2.1: 1.0 g, 800 rpm, 1 hour): converted virtually fully to polymorph 1
- phase found after tribochemical treatment ([4]; Experiment 2.2: 1.0 g, 800 rpm, 5 minutes): attributable to the polymorph 2 used
- phase found after tribochemical treatment ([4]; Experiment 2.3: 1.0 g, 800 rpm, 30 minutes): polymorph 1 is isolated
- phase found after tribochemical treatment ([4]; Experiment 2.4: 1.0 g, 800 rpm, 45 minutes): polymorph 1 is likewise isolated
- phase found after tribochemical treatment ([4]; Experiment 2.5: 1.0 g, 400 rpm, 30 minutes): attributable to the polymorph 2 used
- phase found after tribochemical treatment ([4]; Experiment 2.6: 1.0 g, 400 rpm, 60 minutes): no phase transformation is observed
- phase transformation achieved by the process (summary statement) [4]: virtually full transformation of polymorph 2 to polymorph 1

Source: patent US7766979B2, “Phase transformation in molecular solids” (Avantium International B.V., priority 2004, dated 2010)
